Measured values taken from patent EP4752152A1, “STEROID COMPOUND, AND PREPARATION METHOD THEREFOR AND USE THEREOF” (Cholesgen (Shanghai) Co.Ltd., priority 2023, dated 2025).
Where two headings read alike, the source gives them in different places.

Columns and labels:
[1] = test system: Fatty Acid Synthase (FASN) gene; assay: Inhibition of FASN gene expression (qPCR) in Huh-7 cells; assay type: cell-based, human; details: Huh-7 cells, starvation medium, 16 hours, qPCR, class symbols, read-out: FASN IC50
Protocol: Huh-7 cells (purchased from ATCC) were cultured in DMEM medium (containing 10% fetal bovine serum LONSERA S711-001S) at 37°C in a 5% CO2 incubator. After 24 hours, the original medium was aspirated and replaced with DMEM starvation medium (containing 5% lipoprotein deficient serum (LPDS), 2 µM lovastatin, and 10 µM mevalonate). The control group was treated with dimethyl sulfoxide (DMSO), while the compound treatment groups were treated with different concentrations of compounds. The highest concentration of the compound was 3000 nM, with 3-fold dilutions, totaling 5 concentrations. The cells were cultured for 16 hours. Cell lysis was performed, followed by reverse transcription from cells to cDNA, and qPCR was performed to detect the expression of the SREBP target gene Fatty Acid Synthase (FASN) gene (FASN gene forward primer sequence: 5'-[…]-3', reverse primer sequence: 5'-[…]-3'). The IC50 was calculated. The test data for each test compound were analyzed using Prism software (with the DMSO-treated group as the reference to calculate the compound inhibition rate, fitted using the Prism log(inhibitor) vs. responseVariable slope (four-parameter) model, calculation formula: Y = Bottom + (Top - Bottom)/(1 + 10^((LogIC50 - X) × HillSlope))), to obtain the IC50 parameters of the compounds. Table 4: Inhibition results of FASN gene expression by compounds from some examples

SREBP pathway = assay: SREBP luciferase reporter gene system (SRE-luciferase assay); assay type: cell-based, human; details: Huh-7/SRE-luc cells, sterol-deficient medium, 0.01-10 µM
Method in brief: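 Huh-7 cells stably carrying LDLR promoter-luciferase plus GFP were treated 16 h in sterol-deficient medium (5% lipoprotein-deficient serum, 2 µM lovastatin, 10 µM mevalonic acid) at 0.01–10 µM. Luciferase/GFP ratio measured as pathway activity; inhibition versus DMSO fitted to a four-parameter model for IC50.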

SMILES | IC50 ([1]; Homo sapiens, Huh-7, 16 h) | IC50 (SREBP pathway; Homo sapiens, Huh-7, 16 h) | IC50 [1] | IC50 (SREBP pathway; 16 hours)
COc1ncccc1C(O)CCC[C@@H](C)[C@H]1CC[C@H]2[C@H]3[C@H](CC[C@]12C)[C@@]1(C)CC[C@H](O)[C@H](O)[C@@H]1CC3(F)F (single isomer, unassigned) [Compound 192, (1R,3aS,3bS,5aR,6R,7S,9aR,9bS,11aR)-4,4-difluoro-1-[(2R,6S)-6-hydroxy-6-(^2-methoxypyridin-3-yl)hexan-2-yl]-9a,11a-dimethylhexadecahydro-1H-cyclopenta[1,2-a]phenanthrene-6,7-diol or (1R,3aS,3bS,5aR,6R,7S,9aR,9bS,11aR)-4,4-difluoro-1-[(2R,6R)-6-hydroxy-6-(2-methoxypyridin-3-yl)hexan-2-yl]-9a,11a-dimethylhexadecahydro-1H-cyclopenta[1,2-a]phenanthrene-6,7-diol] | 200 to 500 nM | 0.053 µM | – | –
COc1ncccc1C(O)CCC[C@@H](C)[C@H]1CC[C@H]2[C@H]3[C@H](CC[C@]12C)[C@@]1(C)CC[C@H](O)[C@H](O)[C@@H]1CC3(F)F (single isomer, unassigned) [Compound 193, (1R,3aS,3bS,5aR,6R,7S,9aR,9bS,11aR)-4,4-difluoro-1-[(2R,6R)-6-hydroxy-6-(2-methoxypyridin-3-yl)hexan-2-yl]-9a,11a-dimethylhexadecahydro-1H-cyclopenta[1,2-a]phenanthrene-6,7-diol or (1R,3aS,3bS,5aR,6R,7S,9aR,9bS,11aR)-4,4-difluoro-1-[(2R,6S)-6-hydroxy-6-(2-methoxypyridin-3-yl)hexan-2-yl]-9a,11a-dimethylhexadecahydro-1H-cyclopenta[1,2-a]phenanthrene-6,7-diol] | – | – | 200 to 500 nM | 0.072 µM
C[C@H](CCCC(O)c1cccc2c1OC(F)(F)O2)[C@H]1CC[C@H]2[C@H]3[C@H](CC[C@]12C)[C@@]1(C)CC[C@H](O)[C@H](O)[C@@H]1CC3(F)F (single isomer, unassigned) [Compound 194, (1R,3aS,3bS,5aR,6R,7S,9aR,9bS,11aR)-1-[(2R,6S)-6-(2,2-difluorobenzo[d][1,3]dioxol-4-yl)-6-hydroxyhexan-2-yl]-4,4-difluoro-9a,11a-dimethylhexadecahydro-1H-cyclopenta[1,2-a]phenanthrene-6,7-diol or (1R,3aS,3bS,5aR,6R,7S,9aR,9bS,11aR)-1-[(2R,6R)-6-(2,2-difluorobenzo[d][1,3]dioxol-4-yl)-6-hydroxyhexan-2-yl]-4,4-difluoro-9a,11a-dimethylhexadecahydro-1H-cyclopenta[1,2-a]phenanthrene-6,7-diol] | 200 to 500 nM | 0.102 µM | – | –
COc1cc(F)c([C@@H](O)CCC[C@@H](C)[C@H]2CC[C@H]3[C@H]4[C@H](CC[C@]23C)[C@@]2(C)CC[C@H](O)[C@H](O)[C@@H]2CC4(F)F)c(F)c1Br (single isomer, unassigned) [Compound 198] | < 200 nM | 0.058 µM | – | –
COc1cc(F)c([C@H](O)CCC[C@@H](C)[C@H]2CC[C@H]3[C@H]4[C@H](CC[C@]23C)[C@@]2(C)CC[C@H](O)[C@H](O)[C@@H]2CC4(F)F)c(F)c1Br (single isomer, unassigned) [Compound 199] | 200 to 500 nM | 0.152 µM | – | –
COc1cc(F)cc(F)c1C(O)CCC[C@@H](C)[C@H]1CC[C@H]2[C@H]3[C@H](CC[C@]12C)[C@@]1(C)CC[C@H](O)[C@H](O)[C@@H]1CC3(F)F (single isomer, unassigned) [Compound 200, (1R,3aS,3bS,5aR,6R,7S,9aR,9bS,11aR)-1-[(2R,6S)-6-(4,6-difluoro-2-methoxyphenyl)-6-hydroxyhexan-2-yl]-4,4-difluoro-9a,11a-dimethylhexadecahydro-1H-cyclopenta[1,2-a]phenanthrene-6,7-diol or (1R,3aS,3bS,5aR,6R,7S,9aR,9bS,11aR)-1-[(2R,6R)-6-(4,6-difluoro-2-methoxyphenyl)-6-hydroxyhexan-2-yl]-4,4-difluoro-9a, 11a-dimethylhexadecahydro-1H-cyclopenta[1,2-a]phenanthrene-6,7-diol] | < 200 nM | 0.053 µM | – | –
